Values quoted from earlier work, collected in patent US5505931A, “Acid cleavable compounds, their preparation and use as bifunctional acid-labile crosslinking agents” (The Dow Chemical Company, priority 1993, dated 1996).

Test system: tumor
Settings: unconjugated controls

COc1cccc2c1C(=O)c1c(O)c3c(c(O)c1C2=O)C[C@@](O)(C(C)=O)C[C@@H]3O[C@H]1C[C@H](N)[C@H](O)[C@H](C)O1 [daunomycin]
response in control experiments: inferior response
